# Assay: Study of squalene peroxidation (UVA, hematoporphyrin photosensitizer, singlet oxygen)
# Type: biochemical
# Description: Protocol: The principle of the test is to determine, via the assaying of squalene (Sq) and its photo-oxidation product, the efficacy of an active agent against this form of photo-peroxidation.
# The test makes use of squalene in the presence of a photosensitizer, hematoporphyrin. Under the action of UVA rays, singlet oxygen (^1O2) is generated. This highly reactive form of oxygen degrades the squalene by oxidation of the double bonds to form squalene hydroperoxides (Sq-OOH).
# In the context of the test, the exposure of squalene combined with hematoporphyrin is carried out in the presence of various concentrations of extract obtained according to Example 2 (according to the invention) and according to Example 3 (outside the invention). The reaction medium is ethanol.
# Equipment and Reagents: • Squalene [Sigma S-3626] • Hematoporphyrine Free Base (approx. 70%) [Sigma—ref H-7253] • HPLC or UPLC system in reverse phase mode, detection in UV mode (205 nm)
# Procedure: • ethanol solution containing 500 μg/ml of Sq and 2 μg/ml hematoporphyrin+extract to be tested • expose to UVA rays for the dose of 5 J/cm^2 • measure the amount of Sq and SqOOH before and after exposure • plot % inhibition as a function of the amount of extract tested.
# *IC25: concentration of raw material needed to inhibit squalene peroxidation by 25%. […]
substance,measurement,setting,value
vitamin E,IC50 (squalene peroxidation),"comparison value for vitamin E, printed as % (=250 ppm)",~0.025%
same,IC50 (concentration of raw material needed to inhibit squalene peroxidation by 50%),"solution in ethanol, UVA 5 J/cm^2",~250 ppm
